Legend:
FL5.12/Bcl-2 cells = experiment: FL5.12/Bcl-2 cell viability assay under IL-3 withdrawal (CellTitre Glo); assay type: cell-based, murine; conditions: Mus musculus, IL-3 withdrawn 48 hrs, then 24 hrs with compound
Summary of the method: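 Murine IL-3-dependent FL5.12 cells stably overexpressing Bcl-2 were deprived of IL-3 (WEHI-3B conditioned medium) for 48 h, then exposed to various compound concentrations for 24 h at 37 °C. Viability read by CellTiter-Glo luminescence.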

GST-Bcl-XL = GST-Bcl-XL (Homo sapiens, UniProt Q07817); experiment: TR-FRET binding assay, GST-Bcl-XL with F-Bak peptide probe; conditions: TR-FRET Binding Affinity, GST-Bcl-XL, F-Bak peptide probe
GST-Bcl-XL, sequence (Q07817 whole entry, the tested form may be a part): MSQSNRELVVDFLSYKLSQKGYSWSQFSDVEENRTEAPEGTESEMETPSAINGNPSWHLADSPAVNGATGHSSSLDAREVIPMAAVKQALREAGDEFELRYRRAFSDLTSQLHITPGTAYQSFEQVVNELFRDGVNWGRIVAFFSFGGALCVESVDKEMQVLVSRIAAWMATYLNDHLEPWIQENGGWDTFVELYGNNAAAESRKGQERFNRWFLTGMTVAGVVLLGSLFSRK
Summary of the method: (§1)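 Competitive TR-FRET: GST-fusion protein, fluorescent Bak peptide probe and Tb-labelled anti-GST antibody incubated with compound dilution series (starting 50 μM as 2× stock, 10% DMSO) for 3 h at RT. Excitation 340/35 nm; Ki derived via Wang's exact competitive-binding equation.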

GST-Bcl-2 = GST-Bcl-2 (Homo sapiens, UniProt P10415); experiment: TR-FRET binding assay, GST-Bcl-2 with F-Bak peptide probe; conditions: TR-FRET Binding Affinity, GST-Bcl-2, F-Bak peptide probe
GST-Bcl-2, sequence (P10415 whole entry): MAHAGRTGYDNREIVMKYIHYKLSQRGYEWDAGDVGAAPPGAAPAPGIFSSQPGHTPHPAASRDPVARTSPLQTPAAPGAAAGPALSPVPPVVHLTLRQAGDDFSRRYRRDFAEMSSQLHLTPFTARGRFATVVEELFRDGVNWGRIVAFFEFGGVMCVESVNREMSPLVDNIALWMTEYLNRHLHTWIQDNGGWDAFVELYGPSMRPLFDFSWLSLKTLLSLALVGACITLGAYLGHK
Summary of the method: as §1

Row | SMILES | EC50 (FL5.12/Bcl-2 cells) | Ki (GST-Bcl-XL) | Ki (GST-Bcl-2)
1 | C#Cc1cc(S(=O)(=O)NC(=O)c2ccc(N3CCN(CC4=C(c5ccc(Cl)cc5)CC(C)(C)CC4)CC3)cc2Oc2cccc3[nH]ccc23)cnc1OCC1CCOCC1 [Example 391, 4-(4-{[2-(4-chlorophenyl)-4,4-dimethylcyclohex-1-en-1-yl]methyl}piperazin-1-yl)-N-{[5-ethynyl-6-(tetrahydro-2H-pyran-4-ylmethoxy)pyridin-3-yl]sulfonyl}-2-(1H-indol-4-yloxy)benzamide] | > 500 nM | > 660 nM | 3.54 nM
2 | CC(c1ccccc1-c1ccc(Cl)cc1)N1CCN(c2ccc(C(=O)NS(=O)(=O)c3ccc(NC4CCN(C)CC4)c([N+](=O)[O-])c3)c(Oc3cccc4[nH]ccc34)c2)CC1 (stereo not drawn) [Example 206, 4-{4-[1-(4′-chloro-1,1′-biphenyl-2-yl)ethyl]piperazin-1-yl}-2-(1H-indol-4-yloxy)-N-({4-[(1-methylpiperidin-4-yl)amino]-3-nitrophenyl}sulfonyl)benzamide] | 5.01 nM | > 660 nM | 0.083 nM
3 | Cn1ncc(-c2ccc(Cl)cc2)c1CN1CCN(c2ccc(C(=O)NS(=O)(=O)c3ccc(NCC4CCOCC4)c([N+](=O)[O-])c3)c(Oc3ccc4[nH]ccc4c3)c2)CC1 [Example 285, 4-(4-{[4-(4-chlorophenyl)-1-methyl-1H-pyrazol-5-yl]methyl}piperazin-1-yl)-2-(1H-indol-5-yloxy)-N-({3-nitro-4-[(tetrahydro-2H-pyran-4-ylmethyl)amino]phenyl}sulfonyl)benzamide] | > 500 nM | > 660 nM | 6.99 nM
4 | C[C@H](Nc1ccc(S(=O)(=O)NC(=O)c2ccc(N3CCN(CC4=C(c5ccc(Cl)cc5)CC(C)(C)CC4)CC3)cc2Oc2ccc3[nH]ccc3c2)cc1[N+](=O)[O-])c1ccccc1 [Example 378, 4-(4-{[2-(4-chlorophenyl)-4,4-dimethylcyclohex-1-en-1-yl]methyl}piperazin-1-yl)-2-(1H-indol-5-yloxy)-N-[(3-nitro-4-{[(1S)-1-phenylethyl]amino}phenyl)sulfonyl]benzamide] | > 500 nM | > 660 nM | 63 nM
5 | CC1(C)CCC(CN2CCN(c3ccc(C(=O)NS(=O)(=O)c4ccc(NCCCN5CCCC5=O)c([N+](=O)[O-])c4)c(Oc4ccc5[nH]ccc5c4)c3)CC2)=C(c2ccc(Cl)cc2)C1 [Example 374, 4-(4-{[2-(4-chlorophenyl)-4,4-dimethylcyclohex-1-en-1-yl]methyl}piperazin-1-yl)-2-(1H-indol-5-yloxy)-N-[(3-nitro-4-{[3-(2-oxopyrrolidin-1-yl)propyl]amino}phenyl)sulfonyl]benzamide] | > 500 nM | > 660 nM | 2.27 nM
6 | CC1(C)CCC(CN2CCN(c3ccc(C(=O)NS(=O)(=O)c4cnc(OCC5(F)CCOCC5)c(C#N)c4)c(Oc4cccc5[nH]ncc45)c3)CC2)=C(c2ccc(Cl)cc2)C1 [Example 406, 4-(4-{[2-(4-chlorophenyl)-4,4-dimethylcyclohex-1-en-1-yl]methyl}piperazin-1-yl)-N-({5-cyano-6-[(4-fluorotetrahydro-2H-pyran-4-yl)methoxy]pyridin-3-yl}sulfonyl)-2-(1H-indazol-4-yloxy)benzamide] | 20.5 nM | 44.6 nM | 0.035 nM
7 | CC1(C)CCC(CN2CCN(c3ccc(C(=O)NS(=O)(=O)c4ccc(NC5CCN(Cc6cscn6)CC5)c([N+](=O)[O-])c4)c(Oc4ccc5[nH]ccc5c4)c3)CC2)=C(c2ccc(Cl)cc2)C1 [Example 231, 4-(4-{[2-(4-chlorophenyl)-4,4-dimethylcyclohex-1-en-1-yl]methyl}piperazin-1-yl)-2-(1H-indol-5-yloxy)-N-[(3-nitro-4-{[1-(1,3-thiazol-4-ylmethyl)piperidin-4-yl]amino}phenyl)sulfonyl]benzamide] | 50.9 nM | > 660 nM | 0.918 nM
8 | CC1(C)CCC(CN2CCN(c3ccc(C(=O)NS(=O)(=O)c4ccc(NC5CCN(C6Cc7ccccc7C6)CC5)c([N+](=O)[O-])c4)c(Oc4ccc5[nH]ccc5c4)c3)CC2)=C(c2ccc(Cl)cc2)C1 [Example 228, 4-(4-{[2-(4-chlorophenyl)-4,4-dimethylcyclohex-1-en-1-yl]methyl}piperazin-1-yl)-N-[(4-{[1-(2,3-dihydro-1H-inden-2-yl)piperidin-4-yl]amino}-3-nitrophenyl)sulfonyl]-2-(1H-indol-5-yloxy)benzamide] | > 500 nM | > 660 nM | 4.67 nM
9 | CC1(C)CCC(CN2CCN(c3ccc(C(=O)NS(=O)(=O)c4ccc(C(=O)NCC5CCOCC5)cc4)c(Oc4ccc5[nH]ccc5c4)c3)CC2)=C(c2ccc(Cl)cc2)C1 [Example 308, 4-(4-{[2-(4-chlorophenyl)-4,4-dimethylcyclohex-1-en-1-yl]methyl}piperazin-1-yl)-2-(1H-indol-5-yloxy)-N-[(4-{[(tetrahydro-2H-pyran-4-ylmethyl)amino]carbonyl}phenyl)sulfonyl]benzamide] | > 500 nM | > 660 nM | 57.4 nM
10 | CC1(C)CCC(CN2CCN(c3ccc(C(=O)NS(=O)(=O)c4ccc(NCC5CCOCC5)c([N+](=O)[O-])c4)c(Oc4cccc5[nH]ncc45)c3)CC2)=C(c2ccc(Cl)cc2)C1 [Example 400, 4-(4-{[2-(4-chlorophenyl)-4,4-dimethylcyclohex-1-en-1-yl]methyl}piperazin-1-yl)-2-(1H-indazol-4-yloxy)-N-({3-nitro-4-[(tetrahydro-2H-pyran-4-ylmethyl)amino]phenyl}sulfonyl)benzamide] | 8.47 nM | 36.4 nM | < 0.01 nM
11 | CC1(C)CCC(CN2CCN(c3ccc(C(=O)NS(=O)(=O)c4ccc(NCCCN5CCS(=O)(=O)CC5)c([N+](=O)[O-])c4)c(Oc4cccc5[nH]ccc45)c3)CC2)=C(c2ccc(Cl)cc2)C1 [Example 295, 4-(4-{[2-(4-chlorophenyl)-4,4-dimethylcyclohex-1-en-1-yl]methyl}piperazin-1-yl)-N-[(4-{[3-(1,1-dioxidothiomorpholin-4-yl)propyl]amino}-3-nitrophenyl)sulfonyl]-2-(1H-indol-4-yloxy)benzamide] | 46.3 nM | 110 nM | 0.183 nM
12 | CC(C1=C(c2ccc(Cl)cc2)CC(C)(C)CC1)N1CCN(c2ccc(C(=O)NS(=O)(=O)c3ccc(NC4CCN(C5CCOCC5)CC4)c([N+](=O)[O-])c3)c(Oc3ccc4[nH]ccc4c3)c2)CC1 (stereo not drawn) [Example 258, 4-(4-{1-[2-(4-chlorophenyl)-4,4-dimethylcyclohex-1-en-1-yl]ethyl}piperazin-1-yl)-2-(1H-indol-5-yloxy)-N-({3-nitro-4-[(1-tetrahydro-2H-pyran-4-ylpiperidin-4-yl)amino]phenyl}sulfonyl)benzamide] | 9.11 nM | 4.08 nM | 0.048 nM
13 | COCCCNc1ccc(S(=O)(=O)NC(=O)c2ccc(N3CCN(CC4=C(c5ccc(Cl)cc5)CC(C)(C)CC4)CC3)cc2Oc2cccc3[nH]ccc23)cc1[N+](=O)[O-] [Example 318, 4-(4-{[2-(4-chlorophenyl)-4,4-dimethylcyclohex-1-en-1-yl]methyl}piperazin-1-yl)-2-(1H-indol-4-yloxy)-N-({4-[(3-methoxypropyl)amino]-3-nitrophenyl}sulfonyl)benzamide] | 77 nM | 151 nM | 1.47 nM
14 | CC1(C)CCC(CN2CCN(c3ccc(C(=O)NS(=O)(=O)c4ccc(S(=O)(=O)N5CCOCC5)cc4)c(Oc4ccc5[nH]ccc5c4)c3)CC2)=C(c2ccc(Cl)cc2)C1 [Example 361, 4-(4-{[2-(4-chlorophenyl)-4,4-dimethylcyclohex-1-en-1-yl]methyl}piperazin-1-yl)-2-(1H-indol-5-yloxy)-N-{[4-(morpholin-4-ylsulfonyl)phenyl]sulfonyl}benzamide] | > 500 nM | > 660 nM | 7.13 nM
15 | CC1(C)CCC(CN2CCN(c3ccc(C(=O)NS(=O)(=O)c4ccc(OCC5CCOC(C)(C)C5)c([N+](=O)[O-])c4)c(Oc4ccc5[nH]ccc5c4)c3)CC2)=C(c2ccc(Cl)cc2)C1 (stereo not drawn) [Example 384, 4-(4-{[2-(4-chlorophenyl)-4,4-dimethylcyclohex-1-en-1-yl]methyl}piperazin-1-yl)-N-({4-[(2,2-dimethyltetrahydro-2H-pyran-4-yl)methoxy]-3-nitrophenyl}sulfonyl)-2-(1H-indol-5-yloxy)benzamide] | 101 nM | > 660 nM | 0.076 nM
16 | CN(C)CCOc1ccc(-c2ccc(Cl)cc2)c(CN2CCN(c3ccc(C(=O)NS(=O)(=O)c4ccc(NN5CCN(C)CC5)c([N+](=O)[O-])c4)c(Oc4cccc5[nH]ccc45)c3)CC2)c1 [Example 274, 4-[4-({4′-chloro-4-[2-(dimethylamino)ethoxy]-1,1′-biphenyl-2-yl}methyl)piperazin-1-yl]-2-(1H-indol-4-yloxy)-N-({4-[(4-methylpiperazin-1-yl)amino]-3-nitrophenyl}sulfonyl)benzamide] | 155 nM | 32.9 nM | 0.135 nM
17 | CNc1ccc(S(=O)(=O)NC(=O)c2ccc(N3CCN(CC4=C(c5ccc(Cl)cc5)CC(C)(C)CC4)CC3)cc2Oc2cccc3[nH]ccc23)cc1[N+](=O)[O-] [Example 246, 4-(4-{[2-(4-chlorophenyl)-4,4-dimethylcyclohex-1-en-1-yl]methyl}piperazin-1-yl)-2-(1H-indol-4-yloxy)-N-{[4-(methylamino)-3-nitrophenyl]sulfonyl}benzamide] | 48 nM | 384 nM | 0.783 nM
